# Experimental data from patent US9290496B2, “Purine derivatives” (PFIZER INC., priority 2013, dated 2016).
# Assays:
# [1] = target: T1, EGFR L858R+T790M, endogenous (NCI-H1975) (Homo sapiens, UniProt P00533, L858R/T790M); experiment: pEGFR Y1068 ELISA assay, NCI-H1975 cells; type: cell-based; conditions: inhibition of phosphorylation of EGFR at Tyr1068; NCI-H1975 NSCLC cells; 2 hr compound incubation
# T1 construct: NCI-H1975 (EGFR L858R+T790M, endogenous); host or cells: NCI-H1975
# Protocol: Phosphorylation of EGFR at Y1068 was measured by PathScan® Phospho-EGF Receptor (Try1068) Sandwich ELISA kit (#7240, Cell Signaling Technology®, Danvers, Mass.). The PathScan® Phospho-EGF Receptor (Tyr1068) Sandwich ELISA Kit is a solid phase sandwich enzyme-linked immunosorbent assay (ELISA) that detects endogenous levels of phospho-EGF Receptor (Tyr1068) protein. […] All cells were cultured according to ATCC recommendations. A549, NCI-H1975, PC9, and NCI-H3255 cells were grown in RPMI media (Invitrogen, Carlsbad, Calif.) supplemented with 10% FBS (Sigma, St Louis, Mo.), and with 1% Penn/Strep (Invitrogen). PC9-DRH cells were grown in RPMI with 10% FBS and 1 μM dacomitinib.
# Cells were plated at 40,000/well in complete culture media (50 μL/well) on the bottom of clear tissue culture treated microtiter plates (#3595, Corning Inc, Corning, N.Y.) and allowed to adhere overnight at 37° C., 5% CO2. The following day, compound dilution plates were prepared in 96 well clear V-bottom 0.5 mL polypropylene block plates (#3956, Corning, Inc). Each compound was prepared as a DMSO stock solution (10 mM). Compounds were tested in duplicate on each plate, with an 11-point serial dilution curve (1:3 dilution). Compound treatment (50 μL) was added from the compound dilution plate to the cell plate. […] Plates were then incubated for 2 hr at 37° C., 5% CO2. For A549 (EGFR wildtype) assay, cells were plated in full-serum (10%) media for 24 hr prior to compound treatment; cells were treated in full serum media as described and then stimulated for 10 min with EGF (40 ng/mL/starvation media, Invitrogen). Immediately prior to the end of the incubation, ice-cold lysis buffer was prepared (1× Cell Lysis Buffer (#9803, Cell Signaling Technology), 1 mM sodium orthovanadate (Na3VO4, #96508, Sigma), 1 mM phenylmethanesulfonyl fluoride (PMSF, 52332, CalBiochem/EMD Chemicals), complete Mini EDTA-free Protease Inhibitor Cocktail Tablet (1 tablet/10 mL, #11836170001, Roche, Indianapolis, Ind.), and PhosSTOP Phosphatase Inhibitor Cocktail Tablet (1 tablet/10 mL, #04906837001, Roche) in pure water. At the end of 2 hr, media was flicked off and cells were washed once with ice-cold 1 mM Na3VO4 in PBS (100 μL/well, Invitrogen). The wash was then flicked off and ice-cold lysis buffer was added to the cells (50 μL/well). The plate was shaken for 20-30 min at 4° C. to completely lyse the cells. Sample diluent (50 μL/well) was added to the ELISA plate, and the lysate (50 μL) was diluted into the sample diluent in each well of the ELISA plate. Plates were sealed and incubated overnight at 4° C. with shaking. The next day, wells were washed four times with 1× Wash Buffer; plates were taped on lint-free paper after the final wash prior to adding Add Detection Antibody (green, 100 μL/well) to each well and incubating for 1 hr at 37° C. After incubation, wells were washed as described. HRP-Linked secondary antibody (red, 100 μL/well) was added to each well and incubated for 30 min at 37° C. After incubation, the wells were washed as described. TMB Substrate (100 μL/well) was added to each well and the plate incubated for 10 min at 37° C. or 30 min at rt maximum. Stop Solution (100 μL/well) was added to each well at the end of the incubation and plates were shaken gently for a few seconds. Absorbance was read at 450 nm within 30 min after addition of Stop Solution on a PerkinElmer EnVision Excite Multilabel Reader Method for Absorbance or on a Molecular Devices SpectraMax^384 Reader for absorbance. Data were analyzed using a four-parameter fit in Microsoft Excel.
# [2] = target: T2, EGFR wildtype, endogenous (A549) (Homo sapiens, UniProt P00533); experiment: pEGFR Y1068 ELISA assay, A549 cells; type: cell-based; conditions: inhibition of phosphorylation of EGFR at Tyr1068; A549 NSCLC cells; 2 hr compound incubation, then stimulated 10 min with EGF (40 ng/mL)
# T2 construct: A549 (EGFR wildtype, endogenous); host or cells: A549 (stimulated with EGF)
# T2 sequence (P00533 25-1210): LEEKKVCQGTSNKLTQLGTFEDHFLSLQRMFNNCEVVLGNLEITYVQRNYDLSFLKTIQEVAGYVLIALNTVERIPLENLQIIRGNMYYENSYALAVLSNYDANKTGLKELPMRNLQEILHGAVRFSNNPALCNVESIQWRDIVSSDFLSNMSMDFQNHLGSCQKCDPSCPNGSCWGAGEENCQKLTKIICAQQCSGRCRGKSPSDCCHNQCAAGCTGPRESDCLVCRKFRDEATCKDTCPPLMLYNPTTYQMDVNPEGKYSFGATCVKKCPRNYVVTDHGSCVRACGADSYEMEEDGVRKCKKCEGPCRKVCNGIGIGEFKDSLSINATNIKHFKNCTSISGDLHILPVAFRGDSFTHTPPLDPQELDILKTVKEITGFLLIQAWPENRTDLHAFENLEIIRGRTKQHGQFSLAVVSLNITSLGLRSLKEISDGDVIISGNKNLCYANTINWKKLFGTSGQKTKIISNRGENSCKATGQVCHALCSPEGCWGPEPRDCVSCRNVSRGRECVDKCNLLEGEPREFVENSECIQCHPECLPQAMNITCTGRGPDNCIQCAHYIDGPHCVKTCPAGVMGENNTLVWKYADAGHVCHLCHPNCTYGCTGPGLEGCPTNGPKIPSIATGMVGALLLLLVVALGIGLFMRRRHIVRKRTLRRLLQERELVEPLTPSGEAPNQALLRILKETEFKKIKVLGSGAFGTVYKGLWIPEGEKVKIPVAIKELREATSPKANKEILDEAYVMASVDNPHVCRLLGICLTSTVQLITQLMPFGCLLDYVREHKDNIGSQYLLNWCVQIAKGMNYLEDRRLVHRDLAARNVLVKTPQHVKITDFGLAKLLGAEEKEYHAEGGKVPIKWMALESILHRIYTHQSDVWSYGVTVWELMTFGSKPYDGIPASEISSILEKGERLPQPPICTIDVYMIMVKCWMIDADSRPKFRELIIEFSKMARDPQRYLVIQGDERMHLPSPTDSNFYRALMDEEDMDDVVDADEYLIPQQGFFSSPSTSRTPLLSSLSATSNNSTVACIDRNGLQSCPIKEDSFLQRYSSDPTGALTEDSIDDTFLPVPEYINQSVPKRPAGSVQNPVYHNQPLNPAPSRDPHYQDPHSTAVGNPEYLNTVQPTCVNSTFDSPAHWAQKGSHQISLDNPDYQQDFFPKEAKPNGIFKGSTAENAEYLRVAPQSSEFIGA
# T1 sequence (P00533 25-1210 T790M/L858R): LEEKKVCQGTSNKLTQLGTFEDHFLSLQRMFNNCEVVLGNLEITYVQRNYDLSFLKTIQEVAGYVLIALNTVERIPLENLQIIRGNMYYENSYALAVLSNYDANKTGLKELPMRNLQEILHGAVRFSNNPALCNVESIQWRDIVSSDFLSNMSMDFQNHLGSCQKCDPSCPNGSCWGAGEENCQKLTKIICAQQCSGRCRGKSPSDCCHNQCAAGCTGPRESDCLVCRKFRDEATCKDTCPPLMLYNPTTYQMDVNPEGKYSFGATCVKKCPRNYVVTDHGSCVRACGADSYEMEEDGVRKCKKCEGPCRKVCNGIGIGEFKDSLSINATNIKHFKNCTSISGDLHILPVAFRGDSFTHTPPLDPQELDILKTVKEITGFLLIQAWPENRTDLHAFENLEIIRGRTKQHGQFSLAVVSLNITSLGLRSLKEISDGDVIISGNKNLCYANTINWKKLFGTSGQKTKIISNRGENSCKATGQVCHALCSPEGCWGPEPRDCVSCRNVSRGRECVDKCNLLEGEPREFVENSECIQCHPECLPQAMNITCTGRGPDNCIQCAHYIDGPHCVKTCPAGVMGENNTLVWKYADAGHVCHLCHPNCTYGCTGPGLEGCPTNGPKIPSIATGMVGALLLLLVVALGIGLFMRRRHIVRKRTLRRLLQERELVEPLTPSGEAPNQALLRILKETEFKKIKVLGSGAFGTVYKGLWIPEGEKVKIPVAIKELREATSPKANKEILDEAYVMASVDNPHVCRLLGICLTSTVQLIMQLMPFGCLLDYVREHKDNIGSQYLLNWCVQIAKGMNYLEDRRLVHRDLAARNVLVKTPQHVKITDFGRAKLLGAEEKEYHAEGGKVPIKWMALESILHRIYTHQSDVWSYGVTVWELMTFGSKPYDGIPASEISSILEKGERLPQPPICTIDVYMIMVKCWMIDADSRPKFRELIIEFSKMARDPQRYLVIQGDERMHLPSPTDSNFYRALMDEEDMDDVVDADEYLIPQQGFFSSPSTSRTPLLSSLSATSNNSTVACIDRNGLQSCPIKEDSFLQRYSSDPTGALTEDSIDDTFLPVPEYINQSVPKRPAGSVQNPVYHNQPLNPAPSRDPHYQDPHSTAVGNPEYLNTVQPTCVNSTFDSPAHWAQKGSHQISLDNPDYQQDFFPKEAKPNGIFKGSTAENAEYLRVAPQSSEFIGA
SMILES,IC50 [1],IC50 [2]
"C=CC(=O)N[C@@H]1CN(c2nc(Nc3ccc(N4CCN(C)CC4)cc3)c3ncn(C(C)C)c3n2)C[C@H]1OC (relative stereo) [Example 47, N-((trans)-1-(9-isopropyl-6-((4-(4-methylpiperazin-1-yl)phenyl)amino)-9H-purin-2-yl)-4-methoxypyrrolidin-3-yl)acrylamide]",0.014 µM,–
"C=CC(=O)N1C[C@H](Nc2nc(Nc3cnn(C)c3)c3ncn(C(C)C)c3n2)[C@@H](F)C1 (relative stereo) [Example 58, 1-((trans)-3-fluoro-4-((9-isopropyl-6-((1-methyl-1H-pyrazol-4-yl)amino)-9H-purin-2-yl)amino)pyrrolidin-1-yl)prop-2-en-1-one]",0.058 µM,0.983 µM
"C=CC(=O)N1C[C@@H]2CN(c3nc(Nc4cnn(C)c4)c4ncn(C(C)C)c4n3)C[C@]2(F)C1 (relative stereo) [Example 73, 1-(cis-3a-fluoro-5-(9-isopropyl-6-((1-methyl-1H-pyrazol-4-yl)amino)-9H-purin-2-yl)hexahydropyrrolo[3,4-c]pyrrol-2(1H)-yl)prop-2-en-1-one]",0.009 µM,0.092 µM
"C=CC(=O)N1CCCC(c2nc(Nc3cnn(C)c3)c3ncn(C(C)C)c3n2)C1 (single isomer, unassigned) [Example 6, 1-(3-(9-isopropyl-6-((1-methyl-1H-pyrazol-4-yl)amino)-9H-purin-2-yl)piperidin-1-yl)prop-2-en-1-one]",1.04 µM,≥ 10 µM
"C=CC(=O)N1C[C@H](Nc2nc(Nc3cnn(C)c3)c3ncn(C(C)C)c3n2)[C@@H](F)C1 (single isomer, unassigned) [Example 30, 1-((trans*)-3-fluoro-4-((9-isopropyl-6-((1-methyl-1H-pyrazol-4-yl)amino)-9H-purin-2-yl)amino)pyrrolidin-1-yl)prop-2-en-1-one]",0.082 µM,3.85 µM
"C=CC(=O)N1CCC(Oc2nc(Nc3cnn(C)c3)c3ncn(C(C)C)c3n2)C1 (stereo in doubt) [Example 59, (R)-1-(3((9-isopropyl-6-((1-methyl-1H-pyrazol-4-yl)amino)-9H-purin-2-yl)oxy)pyrrolidin-1-yl)prop-2-en-1-one]",0.162 µM,4.05 µM
"C=CC(=O)NC1(C)CCN(c2nc(Nc3ccc(N4CCN(C)CC4)cc3)c3ncn(C(C)C)c3n2)C1 (stereo not shown) [Example 10, N-(1-(9-isopropyl-6-((4-(4-methylpiperazin-1-yl)phenyl)amino)-9H-purin-2-yl)-3-methylpyrrolidin-3-yl)acrylamide]",0.846 µM,≥ 10 µM
"C=CC(=O)N[C@H]1CCN(c2nc(Nc3cn(C)nc3OC)c3ncn(C(C)C)c3n2)C1 [Example 11, (S)-N-(1-(9-isopropyl-6-((3-methoxy-1-methyl-1H-pyrazol-4-yl)amino)-9H-purin-2-yl)pyrrolidin-3-yl)acrylamide]",0.162 µM,2.84 µM
"C=CC(=O)N[C@H]1C[C@H](Oc2nc(Nc3ccc(N4CCN(C)CC4)cc3)c3ncn(C(C)C)c3n2)C1 [Example 14, N-((trans)-3-((9-isopropyl-6-((4-(4-methylpiperazin-1-yl)phenyl)amino)-9H-purin-2-yl)oxy)cyclobutyl)acrylamide]",0.285 µM,≥ 10 µM
C=CC(=O)N[C@H]1CCN(c2nc(Nc3ccc(N4CCN(C)CC4)cc3)c3ncn(C4CCC4)c3n2)C1 [Example 15],0.055 µM,0.117 µM
"C=CC(=O)NC1CN(c2nc(Nc3ccc(N4CCN(C)CC4)cc3)c3ncn(C(C)C)c3n2)C1 [Example 23, N-(1-(9-isopropyl-6-((4-(4-methylpiperazin-1-yl)phenyl)amino)-9H-purin-2-yl)azetidin-3-yl)acrylamide]",0.039 µM,1.42 µM
"C=CC(=O)N(C)C1CN(c2nc(Nc3ccc(N4CCN(C)CC4)cc3)c3ncn(C(C)C)c3n2)C1 [Example 24, N-(1-(9-isopropyl-6-((4-(4-methylpiperazin-1-yl)phenyl)amino)-9H-purin-2-yl)azetidin-3-yl)-N-methylacrylamide]",0.039 µM,1.14 µM
"C=CC(=O)N1CC[C@@H](Oc2nc(Nc3ccc(N4CCN(C)CC4)cc3)c3ncn(C(C)C)c3n2)C1 [Example 26, (R)-1-(3-((9-isopropyl-6-((4-(4-methylpiperazin-1-yl)phenyl)amino)-9H-purin-2-yl)oxy)pyrrolidin-1-yl)prop-2-en-1-one]",0.025 µM,0.682 µM
"C=CC(=O)N1CC[C@@H](Nc2nc(Nc3ccc(N4CCN(C)CC4)cc3)c3ncn(C(C)C)c3n2)C1 [Example 27, (R)-1-(3-((9-isopropyl-6-((4-(4-methylpiperazin-1-yl)phenyl)amino)-9H-purin-2-yl)amino)pyrrolidin-1-yl)prop-2-en-1-one]",0.029 µM,0.387 µM
"C=CC(=O)N(C)[C@H]1C[C@H](Nc2nc(Nc3ccc(N4CCN(C)CC4)cc3)c3ncn(C(C)C)c3n2)C1 [Example 28, N-((trans)-3-((9-isopropyl-6-((4-(4-methylpiperazin-1-yl)phenyl)amino)-9H-purin-2-yl)amino)cyclobutyl)-N-methylacrylamide]",0.048 µM,0.723 µM
"C=CC(=O)N(C)C1CN(c2nc(Nc3cnn(C)c3)c3ncn(C(C)C)c3n2)C1 [Example 31, N-(1-(9-isopropyl-6((1-methyl-1H-pyrazol-4-yl)amino)-9H-purin-2-yl)azetidin-3-yl)-N-methylacrylamide]",0.076 µM,1.35 µM
"C=CC(=O)N1CC(C)(Nc2nc(Nc3cnn(C)c3)c3ncn(C(C)C)c3n2)C1 [Example 32, 1-(3-((9-isopropyl-6-((1-methyl-1H-pyrazol-4-yl)amino)-9H-purin-2-yl)amino)-3-methylazetidin-1-yl)prop-2-en-1-one]",0.065 µM,1.23 µM
"C=CC(=O)N1C[C@@H]2CN(c3nc(Nc4cnn(C)c4)c4ncn(C)c4n3)C[C@@H]2C1 [Example 34, 1-((cis)-5-(9-methyl-6-((1-methyl-1H-pyrazol-4-yl)amino)-9H-purin-2-yl)hexahydropyrrolo[3,4-c]pyrrol-2(1H)-yl)prop-2-en-1-one]",0.161 µM,2.67 µM
"C=CC(=O)N[C@H]1CCN(c2nc(Nc3ccc(N4CCN(C)CC4)cc3)c3ncn(CC)c3n2)C1 [Example 35, (S)-N-(1-(9-ethyl-6-((4-(4-methylpiperazin-1-yl)phenyl)amino)-9H-purin-2-yl)pyrrolidin-3-yl)acrylamide]",0.011 µM,0.095 µM
"C=CC(=O)N[C@H]1CCN(c2nc(Nc3cn(C)nc3C)c3ncn(C(C)C)c3n2)C1 [Example 37, (S)-N-(1-(6-((1,3-dimethyl-1H-pyrazol-4-yl)amino)-9-isopropyl-9H-purin-2-yl)pyrrolidin-3-yl)acrylamide]",0.391 µM,7.61 µM
"C=CC(=O)N[C@H]1CCN(c2nc(Nc3ccc(N4CCN(C)CC4)cc3)c3ncn(C(C)CO)c3n2)C1 (stereo partly drawn) [Example 48, N-((3S)-1-(9-(1-hydroxypropan-2-yl)-6-((4-(4-methylpiperazin-1-yl)phenyl)amino) -9H-purin-2-yl)pyrrolidin-3-yl)acrylamide]",0.204 µM,4.36 µM
"C=CC(=O)N[C@H]1CCN(c2nc(Nc3cnn(C)c3)c3ncn(C4(C)CC4)c3n2)C1 [Example 60, (S)-N-(1-(6-((1-methyl-1H-pyrazol-4-yl)amino)-9-(1-methylcyclopropyl)-9H-purin-2-yl)pyrrolidin-3-yl)acrylamide]",0.317 µM,1.39 µM
